Experimental data published in PubChem BioAssay (NCI).
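Cells were grown in 96-well plates and exposed to each compound for 48 hours at five concentrations; endpoints were interpolated linearly between bracketing concentrations, or set to the highest concentration if not reached. Here, GI50 denotes the concentration required for 50% inhibition of growth. TGI: concentration producing complete growth inhibition.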

Experiments:
Assay in all cases: growth of human tumour cells (NCI), 48 h
SNB-19 CNS = tested on: SNB-19 CNS
CCRF-CEM leukemia = tested on: CCRF-CEM leukemia
UACC-257 melanoma = tested on: UACC-257 melanoma
HS 578T breast = tested on: HS 578T breast
TK-10 renal = tested on: TK-10 renal
SK-MEL-28 melanoma = tested on: SK-MEL-28 melanoma
HL-60(TB) leukemia = tested on: HL-60(TB) leukemia
MDA-MB-231 breast = tested on: MDA-MB-231 breast
OVCAR-5 ovarian = tested on: OVCAR-5 ovarian
NCI-H460 lung = tested on: NCI-H460 lung
RXF 393 renal = tested on: RXF 393 renal
HOP-92 NSCLC = tested on: HOP-92 NSCLC
SNB-75 CNS = tested on: SNB-75 CNS
HOP-62 NSCLC = tested on: HOP-62 NSCLC
HCC-2998 colon = tested on: HCC-2998 colon
SK-MEL-5 melanoma = tested on: SK-MEL-5 melanoma
SR leukemia = tested on: SR leukemia
NCI-H522 lung = tested on: NCI-H522 lung
MOLT-4 leukemia = tested on: MOLT-4 leukemia
COLO 205 colon = tested on: COLO 205 colon
SF-295 CNS = tested on: SF-295 CNS
SK-OV-3 ovarian = tested on: SK-OV-3 ovarian
K-562 leukemia = tested on: K-562 leukemia
OVCAR-4 ovarian = tested on: OVCAR-4 ovarian
OVCAR-8 ovarian = tested on: OVCAR-8 ovarian
OVCAR-3 ovarian = tested on: OVCAR-3 ovarian
SF-268 CNS = tested on: SF-268 CNS

COc1cc([C@@H]2c3cc4c(cc3[C@H](OC(C)=O)[C@H]3COC(=O)[C@H]23)OCO4)cc(OC)c1OC
TGI (SNB-19 CNS): > 100 µM | GI50 (CCRF-CEM leukemia): 0.0337 µM | TGI (CCRF-CEM leukemia): > 100 µM | GI50 (UACC-257 melanoma): > 100 µM | TGI (UACC-257 melanoma): > 100 µM | GI50 (HS 578T breast): 0.0312 µM | TGI (HS 578T breast): > 100 µM | GI50 (TK-10 renal): 75.2 µM | TGI (TK-10 renal): > 100 µM | GI50 (SK-MEL-28 melanoma): 13.1 µM | TGI (SK-MEL-28 melanoma): > 100 µM | GI50 (HL-60(TB) leukemia): 0.0223 µM | TGI (HL-60(TB) leukemia): 0.0602 µM | GI50 (MDA-MB-231 breast): 0.0416 µM | TGI (MDA-MB-231 breast): > 100 µM | GI50 (OVCAR-5 ovarian): 0.0533 µM | TGI (OVCAR-5 ovarian): > 100 µM | GI50 (NCI-H460 lung): 0.0317 µM | TGI (NCI-H460 lung): > 100 µM | GI50 (RXF 393 renal): 0.0691 µM | TGI (RXF 393 renal): > 100 µM | GI50 (HOP-92 NSCLC): 0.0254 µM | TGI (HOP-92 NSCLC): 4.94 µM | GI50 (SNB-75 CNS): 8.43 µM | TGI (SNB-75 CNS): > 100 µM | GI50 (HOP-62 NSCLC): 0.0483 µM | TGI (HOP-62 NSCLC): > 100 µM | GI50 (HCC-2998 colon): 0.0401 µM | TGI (HCC-2998 colon): > 100 µM | GI50 (SK-MEL-5 melanoma): 0.0229 µM | TGI (SK-MEL-5 melanoma): 0.0658 µM | GI50 (SR leukemia): 0.0225 µM | TGI (SR leukemia): > 100 µM | GI50 (NCI-H522 lung): 0.018 µM | TGI (NCI-H522 lung): 0.0722 µM | GI50 (MOLT-4 leukemia): 0.0385 µM | TGI (MOLT-4 leukemia): > 100 µM | GI50 (COLO 205 colon): 0.0288 µM | TGI (COLO 205 colon): 0.0785 µM | GI50 (SF-295 CNS): 0.026 µM | TGI (SF-295 CNS): > 100 µM | GI50 (SK-OV-3 ovarian): 0.035 µM | TGI (SK-OV-3 ovarian): > 100 µM | GI50 (K-562 leukemia): 0.0321 µM | TGI (K-562 leukemia): > 100 µM | GI50 (OVCAR-4 ovarian): 0.0826 µM | TGI (OVCAR-4 ovarian): > 100 µM | GI50 (OVCAR-8 ovarian): 0.0361 µM | TGI (OVCAR-8 ovarian): > 100 µM | GI50 (OVCAR-3 ovarian): 0.034 µM | TGI (OVCAR-3 ovarian): > 100 µM | GI50 (SF-268 CNS): 0.0484 µM | TGI (SF-268 CNS): > 100 µM
